The values below come from publication PMC10887108, “Novel Brain-Penetrant, Small-Molecule Tubulin Destabilizers for the Treatment of Glioblastoma” (Biomedicines, 2024).

Each structure is given as a SMILES string. Like-named read-outs stand apart in the source and are kept apart here.

The subject of series [1] is U87 cells (microtubule network). In words: Immunofluorescent staining of cellular β-tubulin. It counts as cell-based, human. As to conditions: U87, compounds at their IC50 concentrations, 24 h. The protocol: U87 cells (4000/well) were plated in black 96-well plates (Perkin Elmer 6055302; Waltham, MA, USA) and grown overnight. Cells were treated with compounds for 24 h, fixed with 4% paraformaldehyde for 20 min, and permeabilized with FoxP3 permeabilization buffer (eBioscience/Thermo Fisher Scientific 00-5523-00; Waltham, MA, USA) for 10 min at RT. Cells were incubated with an anti-TUBB3 (Tuj1) antibody (1:1000; […] Technologies 60052; Vancouver, BC, Canada) labeled with Hoechst 33342 dye (1:2000; Thermo Fisher Scientific H3570; Waltham, MA, USA). Images (40×) were taken with an automated high-content imaging microscope (Operetta, Perkin Elmer; Waltham, MA, USA).

The subject of series [2] is GBM12, GBM15, GBM39 and GBM43 patient-derived GB cell lines. The series can be described thus: CellTiter-Glo viability assay, four patient-derived GB cell lines. The series is classed as cell-based. The conditions noted are these: Homo sapiens, 144 h, read-out: IC50 cell viability, range over four patient-derived GB cell lines. The procedure:
Short-term cultures of patient-derived cells GBM12, GBM15, GBM39 and GBM43 (used with permission Mayo Foundation) were seeded (1000 cells/well) in solid white Corning 384-well plates (Corning, NY, USA) and cultured overnight. Cells were treated with DMSO or RGN3067 in a 13-point dose response with a 1:3 serial dilution from an initial concentration of 100 μM. After 144 h, cell viability was measured using CellTiter-Glo (Promega, Madison, WI, USA). Data were normalized to DMSO control, and absolute IC50 values were calculated using GraphPad Prism 10 (San Diego, CA, USA).

Series [3] can be described thus: Maximum tolerated dose study. The series is classed as in vivo. The conditions noted are these: 25, 50, 100 or 200 mg/kg oral twice daily for 5 days + 5 days observation. The procedure:
; 6 mice per group, including vehicle control). One mouse from each group was euthanized for PK analysis at 6 h post-initial dose. The weight and physical states of the animals were monitored during the 5 days of treatment and for 5 days following drug administration. […]

In series [4] the test system is U87 cells. In words: Reversibility (washout) cell viability assay. The series is classed as cell-based. The conditions noted are these: Homo sapiens, U-87 MG.
Series [5] has as its system HMC3 microglial cells (non-tumorigenic). The series can be described thus: alamarBlue cell viability assay, HMC3. It counts as cell-based, human. As to conditions: HMC3, up to 10 μM. The protocol: Cells (100 µL/well) were seeded in 96-well tissue culture plates (Greiner Bio-One 650090; Kremsmünster, Austria). The plating density (cells/well) for each cell line was as follows: LN-18 (3000), U87 (4000), and HMC3 (5000). After overnight incubation, compounds were added to the cells (50 µL at 3× concentration, final 0.1% DMSO), and plates were incubated for 72 h. Cell viability was assessed by the addition of 25 µL of alamarBlue for a final concentration of 100 µM final concentration (Resazurin redox reagent, Sigma-Aldrich R7017; St. Louis, MO, USA). After a 4 h incubation, fluorescence was read on a CLARIOstar Plus plate reader (BMG Labtech, Ortenberg, Germany) at EX 570/EM 590 nm.

Series [6] in a line: Metabolite profiling in cryopreserved hepatocytes. The series is classed as in vitro ADME. As to conditions: mouse, rat, dog, monkey, and human hepatocytes, 120 min. The procedure:
Metabolite profiling was carried out by WuXi DMPK (Nanjing, China). RGN3067 (10 μM) was profiled in CD-1 mice (BioIVT, Westbury, NY, USA), SD rats (BioIVT), beagle dogs (BioIVT), cynomolgus monkeys (Research Institute for Liver Diseases [RILD], Shanghai, China), and human cryopreserved hepatocytes (BioIVT). The positive control was 7-ethoxycoumarin (30 μM). Compounds were added to hepatocytes (400 µL, 1 × 10^6/mL), and reactions were carried out at 37 °C in 5% CO2/saturated humidity for 120 min. Reactions were stopped by the addition of ice-cold ACN (400 μL). Samples were shaken at 300 rpm for 10 min, then centrifuged at 13,000× g for 10 min. Supernatants were evaporated under a stream of N2. Residue from the RGN3067 incubation was reconstituted with ACN: H2O (200 μL, v:v, 3:7), followed by centrifugation at 14,000 rpm for 10 min, and the supernatant was used for qualitative and semi-quantitative analysis using LC-UV/HRMS. A Shimadzu UFLC-20A with autosampler was used for chromatographic separation. Detection and structure were determined using a Thermo Q-Extractive mass spectrometer in full MS/MS^2 scan mode and Xcalibur Data Acquisition and Interpretation Software v4.2.

Series [7] is described as follows: Plasma protein binding (dialysis). It counts as in vitro ADME. The conditions noted are these: range over mouse, rat, and human plasma. The protocol: Compounds (5 µM/0.2% DMSO) were tested in dialysis chambers. Blank dialysis buffer was added to the receiver side (100 μL), and plasma (100 μL) with test and reference compounds was added to the donor side of the chamber and incubated at 37 °C on an orbital shaker. Plasma was precipitated at 0 and 5 h. Aliquots from donor and receiver sides of the dialysis apparatus (25 μL) were added to sample preparation plates and mixed with aliquots of the opposite matrix (25 μL, blank buffer to plasma and vice versa). Samples were quenched with stop solution (400 μL) containing internal standard, vortexed at 600 rpm for 10 min, and centrifuged at 4000 rpm for 10 min. Supernatants were analyzed by LC-MS. Quinidine and warfarin were used as positive controls.

The test system of series [8] is GBM12 patient-derived xenograft. The series can be described thus: Subcutaneous GBM12 PDX efficacy model. The conditions noted are these: 100 mg/kg oral BID, 5 days on/2 days off, four cycles. The series is classed as in vivo, athymic nude female mice. The protocol:
Animal protocols were approved by the Animal Care and Use Committee (ACUC) of the institutes and CRO labs. All studies were performed in compliance with the guidelines. GBM12 cells (5 × 10^6) were injected subcutaneously into athymic nude female mice aged 4–6 weeks. Subcutaneous (SC) tumor size was measured using an external caliper. The greatest longitudinal diameter (length) and the greatest transverse diameter (width) were determined while mice were scruffed and conscious. Tumor volume was calculated by the modified ellipsoidal formula: V = ½ (Length × Width^2). RGN3067 solution was prepared for each mouse. RGN3067 (9.91 mg) was dissolved in DMSO (17 µL) by vortexing for 30–60 s. Approximately 69 μL of PEG400: PVP (95:5, Sigma-Aldrich; St. Louis, MO, USA) solution was added and vortexed.
After tumors reached 100–150 mm^3, mice were dosed with RGN3067 solution (43 µL, 100 mg/kg) or vehicle control twice daily by oral gavage (total dose was 200 mg/kg). Mice were dosed using cycles of 5 days on/2 days off, for a total of four cycles. Mice were euthanized once the tumor reached 2000 mm^3.

`CO[C@H]1C[C@@H](C(=O)NC(=O)Nc2ccc(Oc3ccc(Cl)cn3)c(C)c2)C1` [RGN3067]: the “effect on tubulin organization / MT network morphology” value in series [1] is given as “varying levels of disruption of tubulin organization”. Besides, the IC50 in series [2] was 148 to 616 nM; in series [4] (U87, compound left in medium, 72 h, read-out: IC50 cell viability, no-washout), 571 nM; in series [4] (U87, compound washed out after 6 h, then 72 h, read-out: IC50 cell viability, after washout), greater than 10000 nM. Also, the body weight loss result in series [3] is given as “no statistically significant weight loss was observed”. Further, in series [5], the “inhibition of cell viability” value is “does not significantly inhibit”. The “number of metabolites detected and identified” value in series [6] came to 10. Moreover, the fraction unbound at 5 h, 5 µM in series [7] lay within 0.018 to 0.026. Besides, the “behavior, appearance and weight loss” value in series [8] was “No changes in behavior or appearance (hair and skin) or statistically significant weight loss was observed”. For the same molecule, the “inhibition of tumor growth (tumor volume)” value in series [8] (from day 14 to end of study) is listed as “statistically significant inhibition of tumor growth”.
